Experimental data reported in patent US6479505B1, “6-arylphenanthridines with PDE-IV inhibiting activity” (Altana Pharma AG, priority 1999, dated 2002).

Legend:
PDE4 = assay: Inhibition of PDE4 activity (method of Bauer and Schwabe, microtiter plates); type: biochemical; conditions: inhibitory concentration as −log IC50 (mol/l)
Procedure: The activity test was carried out according to the method of Bauer and Schwabe, which was adapted to microtiter plates (Naunyn-Schmiedeberg's Arch. Pharmacol. 1980, 311, 193-198). The PDE reaction takes place in the first step here. In a second step, the resulting 5′-nucleotide is cleaved by a 5′-nucloetidase of the snake venom of Crotalus atrox to the uncharged nucleoside. In the third step, the nucleoside is separated from the remaining charged substrate on ion-exchange columns. The columns are eluted directly into minivials, into which 2 ml of scintillator fluid are additionally added, for counting using 2 ml of 30 mM ammonium formate (pH 6.0).
The inhibitory values determined for the compounds according to the invention [inhibitory concentration as −log IC50 (mol/l/)] follow from the following Table A, in which the numbers of the compounds correspond to the numbers of the examples.

| Compound | −log IC50 (PDE4) | melting point [°C] |
| --- | --- | --- |
| COc1cc2c(cc1OC)[C@@H]1CCCC[C@@H]1N=C2c1ccc2c(c1)OCCO2 [Compound 3, (−)-cis-8,9-Dimethoxy-6-(2,3-dihydrobenzo[1,4]dioxin-6-yl)-1,2,3,4,4a,10b-hexahydrophenanthridine] | 7.21 | – |
| COc1cc2c(cc1OC)[C@@H]1CCCC[C@@H]1N=C2c1ccc2nc(C)[nH]c2c1 [Compound 10, (−)-cis-8,9-Dimethoxy-6-(2-methyl-3H-benzimidazol-5-yl)-1,2,3,4,4a,10b-hexahydrophenanthridine] | 6.83 | – |
| COc1cc2c(cc1OC)[C@@H]1CCCC[C@@H]1N=C2c1ccc2c(c1)C(=O)c1ccccc1-2.Cl [Compound 7, (+)-cis-8,9-Dimethoxy-6-(fluoren-9-on-2-yl)-1,2,3,4,4a,10b-hexahydrophenanthridine hydrochloride] | 7.85 | – |
| COc1cc2c(cc1OC)[C@@H]1CCCC[C@@H]1N=C2c1ccc(OC(F)F)c2oc(C(C)C)cc12 [Compound 11, (−)-cis-6-[7-Difluoromethoxy-2-isopropylbenzofuran-4-yl]-8,9-dimethoxy-1,2,3,4,4a,10b-hexahydrophenanthridine] | 8.00 | – |
| COc1cc2c(cc1OC)[C@@H]1CCCC[C@@H]1N=C2c1ccc2[nH]nnc2c1 [Compound 4, (−)-cis-6-(1H-Benzotriazol-5-yl)-8,9-dimethoxy-1,2,3,4,4a,10b-hexahydrophenanthridine] | 7.47 | 213 to 214 |
| COc1cc2c(cc1OC)[C@@H]1CCCC[C@@H]1N=C2c1ccc2[nH]cnc2c1 [Compound 9, (−)-cis-6-(1H-Benzimidazol-5-yl)-8,9-dimethoxy-1,2,3,4,4a,10b-hexahydrophenanthridine] | 6.76 | – |
| COc1cc2c(cc1OC)[C@@H]1CCCC[C@@H]1N=C2c1ccc2c(c1)C(=O)c1ccccc1C2=O [Compound 8, (−)-cis-8,9-Dimethoxy-6-(anthraquinon-2-yl)-1,2,3,4,4a,10b-hexahydrophenanthridine] | 8.00 | 213 to 214.5 |
| COc1cc2c(cc1OC)[C@@H]1CCCC[C@@H]1N=C2c1ccc2ccccc2c1 [Compound 5, (−)-cis-8,9-Dimethoxy-6-naphthalen-2-yl-1,2,3,4,4a,10b-hexahydrophenanthridine] | 7.63 | – |
| COc1cc2c(cc1OC)[C@@H]1CCCC[C@@H]1N=C2c1ccc2ncccc2c1 [Compound 2, (−)-cis-8,9-Dimethoxy-6-quinolin-6-yl-1,2,3,4,4a,10b-hexahydrophenanthridine] | 7.23 | – |
| COc1cc2c(cc1OC)[C@@H]1CCCC[C@@H]1N=C2c1ccc2c(c1)OCO2 [Compound 1, (−)-cis-6-Benzo[1,3]dioxol-5-yl-8,9-dimethoxy-1,2,3,4,4a,10b-hexahydrophenanthridine] | 7.28 | – |
| COc1cc2c(cc1OC)[C@@H]1CCCC[C@@H]1N=C2c1ccc2c(c1)S(=O)(=O)c1ccccc1C2=O [Compound 6, (−)-cis-8,9-Dimethoxy-6-(10,10-dioxothioxanthen-9-on-3-yl)-1,2,3,4,4a,10b-hexahydro-phenanthridine] | 8.39 | – |
